Experimental data: PubChem BioAssay AID1259407 (Chemical Carcinogenesis Research Information System (CCRIS), 2018)
Active and inactive are the calls of the source. No rule for the calls is given here.

Tested on: CCRIS mutagenicity, Ames/micronucleus/aberration tests
Assay: CCRIS mutagenicity studies

**Q.** Which results are given for O?
**A.** mutagenic call (End Point: In vitro chromosomal aberrations, Test System: D824 human dental pulp cells, Metabolic Activation: None): inactive; negative; mutagenic call (End Point: In vitro chromosomal aberrations, Test System: D824 human dental pulp cells, Metabolic Activation: Rat, Liver, Postmitochondrial supernate (5%)): inactive; negative; mutagenic call (Test System: AMES SALMONELLA TYPHIMURIUM, Strain/Indicator: TA97, Metabolic Activation: HAMSTER, LIVER, S-9, AROCLOR 1254 (10 OR 30%), Method: PREINCUBATION): inactive; negative; mutagenic call (Test System: AMES SALMONELLA TYPHIMURIUM, Strain/Indicator: TA97, Metabolic Activation: NONE, Method: PREINCUBATION): inactive; negative; mutagenic call (Test System: AMES SALMONELLA TYPHIMURIUM, Strain/Indicator: TA97, Metabolic Activation: RAT, LIVER, S-9, AROCLOR 1254 (10 OR 30%), Method: PREINCUBATION): inactive; negative; mutagenic call (Test System: AMES SALMONELLA TYPHIMURIUM, Strain/Indicator: TA97, Metabolic Activation: RAT, LIVER, S-9, AROCLOR 1254, Method: PREINCUBATION): inactive; negative; mutagenic call (Test System: AMES SALMONELLA TYPHIMURIUM, Strain/Indicator: TA98, Metabolic Activation: HAMSTER, LIVER, S-9, AROCLOR 1254 (10 OR 30%), Method: PREINCUBATION): inactive; negative; mutagenic call (Test System: AMES SALMONELLA TYPHIMURIUM, Strain/Indicator: TA98, Metabolic Activation: NONE, Method: PREINCUBATION): inactive; negative; mutagenic call (Test System: AMES SALMONELLA TYPHIMURIUM, Strain/Indicator: TA98, Metabolic Activation: RAT LIVER S-9, PHENOBARBITAL AND BETA-NAPHTHOFLAVONE, Method: PREINCUBATION): inactive; negative; mutagenic call (Test System: AMES SALMONELLA TYPHIMURIUM, Strain/Indicator: TA98, Metabolic Activation: RAT, LIVER, S-9, AROCLOR 1254 (10 OR 30%), Method: PREINCUBATION): inactive; negative; mutagenic call (Test System: AMES SALMONELLA TYPHIMURIUM, Strain/Indicator: TA98, Metabolic Activation: RAT, LIVER, S-9, PHENOBARBITAL AND BETA-NAPHTHOFLAVONE, Method: PREINCUBATION): inactive; negative; mutagenic call (Test System: AMES SALMONELLA TYPHIMURIUM, Strain/Indicator: TA100, Metabolic Activation: HAMSTER, LIVER, S-9, AROCLOR 1254 (10 OR 30%), Method: PREINCUBATION): inactive; negative; mutagenic call (Test System: AMES SALMONELLA TYPHIMURIUM, Strain/Indicator: TA100, Metabolic Activation: NONE, Method: PREINCUBATION): inactive; negative; mutagenic call (Test System: AMES SALMONELLA TYPHIMURIUM, Strain/Indicator: TA100, Metabolic Activation: RAT LIVER S-9, PHENOBARBITAL AND BETA-NAPHTHOFLAVONE, Method: PREINCUBATION): inactive; negative; mutagenic call (Test System: AMES SALMONELLA TYPHIMURIUM, Strain/Indicator: TA100, Metabolic Activation: RAT, LIVER, S-9, AROCLOR 1254 (10 OR 30%), Method: PREINCUBATION): inactive; negative; mutagenic call (Test System: AMES SALMONELLA TYPHIMURIUM, Strain/Indicator: TA100, Metabolic Activation: RAT, LIVER, S-9, PHENOBARBITAL AND BETA-NAPHTHOFLAVONE, Method: PREINCUBATION): inactive; negative; mutagenic call (Test System: AMES SALMONELLA TYPHIMURIUM, Strain/Indicator: TA102, Metabolic Activation: NONE, Method: PREINCUBATION): inactive; negative; mutagenic call (Test System: AMES SALMONELLA TYPHIMURIUM, Strain/Indicator: TA102, Metabolic Activation: RAT, LIVER, S-9, AROCLOR 1254, Method: PREINCUBATION): inactive; negative; mutagenic call (Test System: AMES SALMONELLA TYPHIMURIUM, Strain/Indicator: TA104, Metabolic Activation: NONE, Method: PREINCUBATION): inactive; negative; mutagenic call (Test System: AMES SALMONELLA TYPHIMURIUM, Strain/Indicator: TA104, Metabolic Activation: RAT, LIVER, S-9, SODIUM PHENOBARBITAL AND 5,6-BENZOFLAVONE, Method: PREINCUBATION): inactive; negative; mutagenic call (Test System: AMES SALMONELLA TYPHIMURIUM, Strain/Indicator: TA1535, Metabolic Activation: HAMSTER, LIVER, S-9, AROCLOR 1254 (10 OR 30%), Method: PREINCUBATION): inactive; negative; mutagenic call (Test System: AMES SALMONELLA TYPHIMURIUM, Strain/Indicator: TA1535, Metabolic Activation: NONE, Method: PREINCUBATION): inactive; negative; mutagenic call (Test System: AMES SALMONELLA TYPHIMURIUM, Strain/Indicator: TA1535, Metabolic Activation: RAT LIVER S-9, PHENOBARBITAL AND BETA-NAPHTHOFLAVONE, Method: PREINCUBATION): inactive; negative; mutagenic call (Test System: AMES SALMONELLA TYPHIMURIUM, Strain/Indicator: TA1535, Metabolic Activation: RAT, LIVER, S-9, AROCLOR 1254 (10 OR 30%), Method: PREINCUBATION): inactive; negative; mutagenic call (Test System: AMES SALMONELLA TYPHIMURIUM, Strain/Indicator: TA1535, Metabolic Activation: RAT, LIVER, S-9, PHENOBARBITAL AND BETA-NAPHTHOFLAVONE, Method: PREINCUBATION): inactive; negative; mutagenic call (Test System: AMES SALMONELLA TYPHIMURIUM, Strain/Indicator: TA1537, Metabolic Activation: HAMSTER, LIVER, S-9, AROCLOR 1254 (30%), Method: PREINCUBATION): inactive; negative; mutagenic call (Test System: AMES SALMONELLA TYPHIMURIUM, Strain/Indicator: TA1537, Metabolic Activation: NONE, Method: PREINCUBATION): inactive; negative; mutagenic call (Test System: AMES SALMONELLA TYPHIMURIUM, Strain/Indicator: TA1537, Metabolic Activation: RAT LIVER S-9, PHENOBARBITAL AND BETA-NAPHTHOFLAVONE, Method: PREINCUBATION): inactive; negative; mutagenic call (Test System: AMES SALMONELLA TYPHIMURIUM, Strain/Indicator: TA1537, Metabolic Activation: RAT, LIVER, S-9, AROCLOR 1254 (30%), Method: PREINCUBATION): inactive; negative; mutagenic call (Test System: AMES SALMONELLA TYPHIMURIUM, Strain/Indicator: TA1537, Metabolic Activation: RAT, LIVER, S-9, PHENOBARBITAL AND BETA-NAPHTHOFLAVONE, Method: PREINCUBATION): inactive; negative; mutagenic call (Test System: AMES SALMONELLA TYPHIMURIUM, Strain/Indicator: TA1538, Metabolic Activation: NONE, Method: PREINCUBATION): inactive; negative; mutagenic call (Test System: AMES SALMONELLA TYPHIMURIUM, Strain/Indicator: TA1538, Metabolic Activation: RAT LIVER S-9, PHENOBARBITAL AND BETA-NAPHTHOFLAVONE, Method: PREINCUBATION): inactive; negative; mutagenic call (Test System: E. COLI, Strain/Indicator: WP2UVRA/PKM101, Metabolic Activation: NONE, Method: PREINCUBATION): inactive; negative; mutagenic call (Test System: E. COLI, Strain/Indicator: WP2UVRA/PKM101, Metabolic Activation: RAT, LIVER, S-9, SODIUM PHENOBARBITAL AND 5,6-BENZOFLAVONE, Method: PREINCUBATION): inactive; negative; mutagenic call (Test System: E. COLI, Strain/Indicator: WP2UVRA, Metabolic Activation: NONE, Method: PREINCUBATION): inactive; negative; mutagenic call (Test System: E. COLI, Strain/Indicator: WP2UVRA, Metabolic Activation: RAT, LIVER, S-9, SODIUM PHENOBARBITAL AND 5,6-BENZOFLAVONE, Method: PREINCUBATION): inactive; negative; mutagenic call (Test System: E.COLI, Strain/Indicator: WP2UVRA, Metabolic Activation: NONE, Method: PREINCUBATION): inactive; negative; mutagenic call (Test System: E.COLI, Strain/Indicator: WP2UVRA, Metabolic Activation: RAT LIVER S-9, PHENOBARBITAL AND BETA-NAPHTHOFLAVONE, Method: PREINCUBATION): inactive; negative; mutagenic call (Test System: MOUSE LYMPHOMA, Strain/Indicator: L5178Y (TK+/TK-), Metabolic Activation: NONE, Method: SUSPENSION/PLATE): inactive; negative; mutagenic call (Test System: MOUSE LYMPHOMA, Strain/Indicator: L5178Y (TK+/TK-), Metabolic Activation: RAT, LIVER, S-9, AROCLOR 1254, Method: SUSPENSION/PLATE): active; positive
